Values quoted from earlier work as cited in patent US20170143768A1, “OINTMENT FOR THE TREATMENT OF HEMORRHOIDAL DISEASE” (Global Treat SRL, priority 2014, published 2017).

solubility in water: water-soluble
Structure (SMILES): CC12CCC(CC1=O)C2(C)C (stereo not shown) [camphor]
